In general, IC50 refers to the point on the concentration scale where inhibition reaches its midpoint.

28 compounds from patent US10294212B2 (CURADEV PHARMA PRIVATE LTD., priority 2013, dated 2019) can be followed below.

Where a name gives a salt, the structure may show the parent alone.

Experiment [1] deals with Human TDO (hTDO)-transfected CHO-K1 cells (Homo sapiens (Human), UniProt P48775). As to the kind of experiment: CHO-K1 cell based TDO assay. The note with it: hTDO cellular assay. The essentials:
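Stably hTDO-expressing CHO-K1 cells were exposed to compounds (typically 31 μM to 10 nM) in HBSS with 80 μM L-tryptophan for 2 h. TCA-treated supernatant was heated at 65° C for 15 min to convert N-formylkynurenine, then kynurenine was quantified by LC/MS/MS. IC50 came from percent inhibition versus DMSO control.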

For experiment [2], the target named is Human indoleamine 2,3-dioxygenase1 (hIDO1) (Homo sapiens (Human), UniProt P14902). The experiment can be described thus: In-vitro IDO1 enzyme assay (conversion of L-tryptophan to KYN). The conditions noted are these: read-out: IC50 (IDO1) Enz. The experiment is classed as biochemical. The essentials:
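His-tagged hIDO1 (10 nM, E. coli-expressed) incubated with 30 μM L-tryptophan, 20 mM ascorbate, 10 μM methylene blue and 100 μg/mL catalase in 50 mM potassium phosphate pH 6.5, 30 min at 37 °C. TCA stop, then 65 °C hydrolysis; KYN measured by HPLC-UV at 360 nm or LC/MS/MS. IC50 by nonlinear regression versus 1% DMSO control.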

The target of experiment [3] is IDO1 in HeLa cells (Homo sapiens (Human), UniProt P14902). As to the kind of experiment: HeLa cell based IDO1 assay (IFNγ-induced, KYN in supernatant). The essentials: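 HeLa cells were induced overnight with IFNγ (50 ng/mL), washed, then exposed to compound (typically 10 μM–1 nM) in HBSS with 80 μM L-tryptophan. Supernatant was TCA-treated at 65 °C for 15 min to convert N-formylkynurenine, and KYN was measured by HPLC-UV at 360 nm. IC50 came from nonlinear regression against a 1% DMSO control.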
Chain of IDO1 in HeLa cells (P14902 whole entry): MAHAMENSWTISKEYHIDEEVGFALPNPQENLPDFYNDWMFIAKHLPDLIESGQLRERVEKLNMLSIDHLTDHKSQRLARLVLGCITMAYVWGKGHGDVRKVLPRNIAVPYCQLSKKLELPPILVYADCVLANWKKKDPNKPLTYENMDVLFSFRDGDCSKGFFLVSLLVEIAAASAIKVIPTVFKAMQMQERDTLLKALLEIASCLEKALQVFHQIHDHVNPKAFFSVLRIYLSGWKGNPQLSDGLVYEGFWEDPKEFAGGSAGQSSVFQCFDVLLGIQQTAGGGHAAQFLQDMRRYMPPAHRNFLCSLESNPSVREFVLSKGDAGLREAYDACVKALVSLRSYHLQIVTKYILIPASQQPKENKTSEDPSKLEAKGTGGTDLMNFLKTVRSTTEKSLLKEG

Chain of Human TDO (hTDO)-transfected CHO-K1 cells (P48775 whole entry): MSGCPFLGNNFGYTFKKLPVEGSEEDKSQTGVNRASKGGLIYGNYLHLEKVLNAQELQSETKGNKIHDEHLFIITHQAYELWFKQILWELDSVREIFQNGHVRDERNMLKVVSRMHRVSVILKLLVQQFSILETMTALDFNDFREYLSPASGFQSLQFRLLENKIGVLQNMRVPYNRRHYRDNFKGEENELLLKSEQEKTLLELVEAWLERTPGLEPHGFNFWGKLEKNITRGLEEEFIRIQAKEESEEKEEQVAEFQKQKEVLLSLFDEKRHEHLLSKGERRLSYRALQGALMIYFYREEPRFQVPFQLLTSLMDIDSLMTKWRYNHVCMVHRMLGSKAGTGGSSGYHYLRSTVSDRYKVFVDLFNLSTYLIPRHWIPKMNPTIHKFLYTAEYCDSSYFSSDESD
Chain of Human indoleamine 2,3-dioxygenase1 (hIDO1) (P14902 whole entry): as the sequence (P14902 whole entry) above

On to `Nc1sc2ccccc2c1Nc1ccc(F)cc1` [Compound 231, N^3-(4-Fluorophenyl)benzo[b]thiophene-2,3-diamine], for which the IC50 in experiment [1] was greater than 2000 nM; in experiment [2], 200 to 1000 nM; in experiment [3], 200 to 1000 nM.
In the case of `CCc1ccccc1Nc1c(N)sc2ccccc12` [Compound 232, N^3-(2-Ethylphenyl)benzo[b]thiophene-2,3-diamine hydrochloride], the IC50 is greater than 2000 nM in experiment [1], greater than 1000 nM in experiment [2] and greater than 1000 nM in experiment [3].
As to `Nc1sc2c(-c3ccccc3)cccc2c1Nc1ccc(F)c(Cl)c1` [Compound 233, N^3-(3-Chloro-4-fluorophenyl)-7-phenylbenzo[b]thiophene-2,3-diamine], the half-inhibitory concentration (IC50) in experiment [1] is greater than 2000 nM; in experiment [2], less than 200 nM; in experiment [3], less than 200 nM.
With `Nc1sc2ccccc2c1Nc1cccc(Cl)c1` [Compound 234, N^3-(3-Chlorophenyl)benzo[b]thiophene-2,3-diamine], the IC50 was less than 500 nM in experiment [1], less than 200 nM in experiment [2] and less than 200 nM in experiment [3].
Turning to `COc1cccc(Nc2c(N)sc3ccccc23)c1` [Compound 235, N^3-(3-Methoxyphenyl)benzo[b]thiophene-2,3-diamine], the IC50 was less than 500 nM in experiment [1], 200 to 1000 nM in experiment [2] and less than 200 nM in experiment [3].
The like results for `Nc1sc2ccccc2c1Nc1ccc2c(c1)OCO2` [Compound 236, N^3-(benzo[d][1,3]dioxol-5-yl)benzo[b]thiophene-2,3-diamine] were, in that order, greater than 2000 nM, less than 200 nM and less than 200 nM.
Taken in the same sequence, the figures for `Cc1cc(Br)ccc1Nc1c(N)sc2ccccc12` [Compound 237, N^3-(4-Bromo-2-methylphenyl)benzo[b]thiophene-2,3-diamine] were greater than 2000 nM, greater than 1000 nM and 200 to 1000 nM.
The like results for `Cc1cc(-c2nccc3c(Nc4cccc(Cl)c4)c(N)oc23)ccn1` [Compound 238, N^3-(3-Chlorophenyl)-7-(2-methylpyridin-4-yl)furo[2,3-c]pyridine-2,3-diamine] were, in that order, 500 to 2000 nM, less than 200 nM and less than 200 nM.
With `Cc1cc(-c2nccc3c(Nc4ccccc4)c(N)oc23)ccn1` [Compound 239, 7-(2-Methylpyridin-4-yl)-N^3-phenylfuro[2,3-c]pyridine-2,3-diamine], the IC50 in experiment [1] is less than 500 nM; in experiment [2], less than 200 nM; in experiment [3] it was less than 200 nM.
As to `Cc1cc(-c2cccc3c(Nc4ccc(F)c(Cl)c4)c(N)sc23)ccn1` [Compound 240, N^3-(3-Chloro-4-fluorophenyl)-7-(2-methylpyridin-4-yl)benzo[b]thiophene-2,3-diamine], the IC50 was greater than 2000 nM in experiment [1], less than 200 nM in experiment [2] and less than 200 nM in experiment [3].
On to `Cc1cc(-c2nc(F)cc3c(Nc4ccc(F)cc4)c(N)oc23)ccn1` [Compound 241, 5-Fluoro-N^3-(4-fluorophenyl)-7-(2-methylpyridin-4-yl)furo[2,3-c]pyridine-2,3-diamine], for which the figures for the IC50 in experiment [1], in experiment [2] and in experiment [3] were less than 500 nM, less than 200 nM and less than 200 nM, respectively.
For the compound `Cc1cc(-c2nccc3c(Nc4cccc(F)c4)c(N)oc23)ccn1` [Compound 243, N^3-(3-Fluorophenyl)-7-(2-methylpyridin-4-yl)furo[2,3-c]pyridine-2,3-diamine], the IC50 in experiment [1] is less than 500 nM; in experiment [2] it was less than 200 nM; in experiment [3] it was less than 200 nM.
With `Cc1cc(-c2nc(F)cc3c(Nc4ccc(F)c(Cl)c4)c(N)oc23)ccn1` [Compound 244, N^3-(3-Chloro-4-fluorophenyl)-5-fluoro-7-(2-methylpyridin-4-yl)furo[2,3-c]pyridine-2,3-diamine], the IC50 in experiment [1] was 500 to 2000 nM; in experiment [2], less than 200 nM; in experiment [3], less than 200 nM.
`Nc1oc2c(N3CCOCC3)nccc2c1Nc1ccc(F)c(Cl)c1` [Compound 245, N^3-(3-Chloro-4-fluorophenyl)-7-morpholinofuro[2,3-c]pyridine-2,3-diamine]: the values for the IC50 in experiment [1], in experiment [2] and in experiment [3] were 500 to 2000 nM, less than 200 nM and less than 200 nM, respectively.
Consider `Cc1cc(-c2nc(F)cc3c(Nc4ccc(F)c(F)c4)c(N)oc23)ccn1` [Compound 246, N^3-(3,4-Difluorophenyl)-5-fluoro-7-(2-methylpyridin-4-yl)furo[2,3-c]pyridine-2,3-diamine], for which the results for the IC50 in experiment [1], in experiment [2] and in experiment [3] were 500 to 2000 nM, less than 200 nM and less than 200 nM, respectively.
For the compound `Nc1oc2c(-c3ccc4ccccc4c3)nccc2c1Nc1ccc(F)c(Cl)c1` [Compound 247, N^3-(3-Chloro-4-fluorophenyl)-7-(naphthalen-2-yl)furo[2,3-c]pyridine-2,3-diamine], the IC50 in experiment [1] was greater than 2000 nM; in experiment [2] it was less than 200 nM; in experiment [3], less than 200 nM.
As to `Cc1cc(-c2cccc3c(Nc4cccc(Cl)c4)c(N)sc23)ccn1` [Compound 248, N^3-(3-Chlorophenyl)-7-(2-methylpyridin-4-yl)benzo[b]thiophene-2,3-diamine], the IC50 in experiment [1] was 500 to 2000 nM; in experiment [2], less than 200 nM; in experiment [3] it was less than 200 nM.
Turning to `Nc1oc2c(-c3ccnc(C(=O)Nc4ccccc4)c3)nccc2c1Nc1ccc(F)c(Cl)c1` [Compound 249, 4-(2-Amino-3-((3-chloro-4-fluorophenyl)amino)furo[2,3-c]pyridin-7-yl)-N-phenylpicolinamide], the results for the IC50 in experiment [1], in experiment [2] and in experiment [3] were greater than 2000 nM, less than 200 nM and 200 to 1000 nM, respectively.
Taken in the same sequence, the figures for `CCCCNC(=O)c1cc(-c2nccc3c(Nc4ccc(F)c(Cl)c4)c(N)oc23)ccn1` [Compound 250, 4-(2-Amino-3-((3-chloro-4-fluorophenyl)amino)furo[2,3-c]pyridin-7-yl)-N-butylpicolinamide] were greater than 2000 nM, less than 200 nM and less than 200 nM.
As for `CC(C)(C)NC(=O)c1cc(-c2nccc3c(Nc4ccc(F)c(Cl)c4)c(N)oc23)ccn1` [Compound 251, 4-(2-Amino-3-((3-chloro-4-fluorophenyl)amino)furo[2,3-c]pyridin-7-yl)-N-(tert-butyl)picolinamide], the results for the IC50 in experiment [1], in experiment [2] and in experiment [3] were greater than 2000 nM, less than 200 nM and less than 200 nM, respectively.
Regarding `CC(C)CNC(=O)c1cc(-c2nccc3c(Nc4ccc(F)c(Cl)c4)c(N)oc23)ccn1` [Compound 252, 4-(2-Amino-3-((3-chloro-4-fluorophenyl)amino)furo[2,3-c]pyridin-7-yl)-N-isobutylpicolinamide], the IC50 in experiment [1] was greater than 2000 nM; in experiment [2] it was less than 200 nM; in experiment [3], less than 200 nM.
For `CCCNC(=O)c1cc(-c2nccc3c(Nc4ccc(F)c(Cl)c4)c(N)oc23)ccn1` [Compound 253, 4-(2-Amino-3-((3-chloro-4-fluorophenyl)amino)furo[2,3-c]pyridin-7-yl)-N-propylpicolinamide], the IC50 in experiment [1] is greater than 2000 nM; in experiment [2] it was less than 200 nM; in experiment [3], less than 200 nM.
As for `Cc1cc(-c2nc(F)cc3c(Nc4cccc(Cl)c4)c(N)oc23)ccn1` [Compound 254, N^3-(3-Ahlorophenyl)-5-fluoro-7-(2-methylpyridin-4-yl)furo[2,3-c]pyridine-2,3-diamine], the half-inhibitory concentration (IC50) in experiment [1] was 500 to 2000 nM; in experiment [2], less than 200 nM; in experiment [3], less than 200 nM.
For the compound `Cc1cc(-c2nccc3c(Nc4ccc(F)cc4F)c(N)oc23)ccn1` [Compound 256, N^3-(2,4-Difluorophenyl)-7-(2-methylpyridin-4-yl)furo[2,3-c]pyridine-2,3-diamine], the half-maximal inhibitory concentration (IC50) in experiment [1] was less than 500 nM; in experiment [2] it was less than 200 nM; in experiment [3] it was less than 200 nM.
Consider `Nc1oc2c(-c3ccnc(C(=O)NC4CCCCC4)c3)nccc2c1Nc1ccc(F)c(Cl)c1` [Compound 257, 4-(2-Amino-3-((3-chloro-4-fluorophenyl)amino)furo[2,3-c]pyridin-7-yl)-N-cyclohexylpicolinamide], for which the IC50 in experiment [1] is greater than 2000 nM; in experiment [2], less than 200 nM; in experiment [3] it was less than 200 nM.
As to `Nc1oc2c(-c3cc(Cl)cc(Cl)c3)nccc2c1Nc1ccc(F)c(Cl)c1` [Compound 258, N^3-(3-Chloro-4-fluorophenyl)-7-(3,5-dichlorophenyl)furo[2,3-c]pyridine-2,3-diamine], the IC50 was greater than 2000 nM in experiment [1], less than 200 nM in experiment [2] and 200 to 1000 nM in experiment [3].
`CC(C)(C)c1cc(-c2nccc3c(Nc4ccc(F)c(Cl)c4)c(N)oc23)ccn1` [Compound 259, 7-(2-(tert-Butyl)pyridin-4-yl)-N^3-(3-chloro-4-fluorophenyl)furo[2,3-c]pyridine-2,3-diamine]: the 50% inhibitory concentration (IC50) in experiment [1] was greater than 2000 nM; in experiment [2], less than 200 nM; in experiment [3], 200 to 1000 nM.
Consider `Nc1oc2c[n+]([O-])ccc2c1Nc1ccc(F)c(Cl)c1` [Compound 260, 2-Amino-3-((3-chloro-4-fluorophenyl)amino)furo[2,3-c]pyridine 6-oxide], for which the 50% inhibitory concentration (IC50) in experiment [1] is 500 to 2000 nM; in experiment [2] it was 200 to 1000 nM; in experiment [3], 200 to 1000 nM.
